From patent US20040018210A1, “Cholesterol-lowering agent” (priority 2001, published 2004)

Test system: T9A4 human hepatic cells
Assay: In vitro analysis of the hypocholesterolaemic effect: de novo synthesis of cholesterol measured by incorporation of C14-acetate
Format: cell-based
Conditions: main purified oxylanosterol molecules
Experimental: In the present context, the hypocholesterolaemic effect of the present product is evaluated in a qualitative manner on the model of T9A4 human hepatic cells cultured in vitro. Although it is known that such results cannot be transferred directly to man in vivo, they nevertheless provide useful indications. The hypocholesterolaemic effect is evaluated by measurement of the de novo synthesis of cholesterol on human hepatic cells in culture by measuring the incorporation of C^14-acetate. A means of evaluation of this de novo synthesis is described in a method presented below.
T9A4 human hepatic cells are grown on LCM medium (Biofluids, Rockville, Md.) at 37° C. under 3.5% CO2. The cells are seeded in 24-well culture boxes and incubated to confluence with 1 mM C14-acetate (1 mCi/mol, Amersham) for 20 hours in the absence (control) or in the presence of the extract rich in oxygenated derivatives of lanosterol obtained from fungi and/or purified fractions, dissolved in methanol.
A lipid extraction is carried out by incubation in a hexane:isopropanol (3:2) mixtures for 30 minutes at ambient temperature. The extract is then dried under nitrogen and then redissolved in hexane and subjected to thin layer high performance chromatography (Merck, Darmstadt, Germany) with a hexane:diethyl ether:acetic acid (75:25:1) mixture as the solvent. The cholesterol neosynthesis is determined by measuring the incorporation of C^14-acetate within the cholesterol with the aid of an imager (Camberra Packard, Zurich, Switzerland) and is expressed in % of the control.
ID50 represents the dose which inhibits the cholesterol synthesis by 50%. It can be seen that the various extracts have a considerable hypocholesterolaemic activity.

| SMILES | ID50 |
| --- | --- |
| C/C(=C\CC[C@@H](C)[C@H]1CC[C@@]2(C)C3=CC[C@H]4C(C)(C)C(=O)CC[C@]4(C)C3=CC[C@]12C)CO [Ganoderol A] | 1 μq/ml |
| C/C(=C\CC[C@@H](C)[C@H]1CC[C@@]2(C)C3=CC[C@H]4C(C)(C)[C@@H](O)CC[C@]4(C)C3=CC[C@]12C)CO [Ganoderol B] | 10 μq/ml |
| C/C(=C\CC[C@@H](C)[C@H]1CC[C@@]2(C)C3=CC[C@H]4C(C)(C)[C@@H](O)CC[C@]4(C)C3=CC[C@]12C)C(=O)O [Ganoderic acid Y] | 0.5 μq/ml |
| C/C(C=O)=C\CC[C@@H](C)[C@H]1CC[C@@]2(C)C3=CC[C@H]4C(C)(C)C(=O)CC[C@]4(C)C3=CC[C@]12C [Ganoderal A] | 7 μq/ml |
